In patent publication US11897865B2, “ABHD12 inhibitors and methods of making and using same” (THE SCRIPPS RESEARCH INSTITUTE, priority 2018, dated 2024):

How the values were obtained:
ABHD12 [1] = target: T1, ABHD12 (Mus musculus, UniProt Q99LR1); assay: Gel-based competitive ABPP, JJH350 probe vs brain membrane proteome; format: biochemical; details: for inhibition at 10 µM: 10 μM compound, read-out: % Inhibition @ 10 μM (ABPP gel_JJH350 probe vs brain mem); for IC50: read-out: IC50 (ABPP gel_JJH350 probe vs brain mem)
T1 construct: from tissue; host or cells: brain membrane proteome
T1 sequence (Q99LR1 1-398): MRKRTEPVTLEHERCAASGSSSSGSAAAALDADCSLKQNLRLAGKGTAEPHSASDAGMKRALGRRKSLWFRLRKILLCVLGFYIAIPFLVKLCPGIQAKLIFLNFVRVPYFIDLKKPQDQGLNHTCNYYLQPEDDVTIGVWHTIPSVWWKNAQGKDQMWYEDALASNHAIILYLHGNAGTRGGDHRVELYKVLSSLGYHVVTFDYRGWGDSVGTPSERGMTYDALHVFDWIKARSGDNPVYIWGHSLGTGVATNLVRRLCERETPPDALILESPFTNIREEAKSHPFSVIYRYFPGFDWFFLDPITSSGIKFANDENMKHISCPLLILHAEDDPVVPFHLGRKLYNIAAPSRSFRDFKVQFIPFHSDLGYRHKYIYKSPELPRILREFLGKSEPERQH
Method: Gel-Based Competitive ABPP for In Vitro Inhibitor Treatment of Proteomes:
Gel-based ABPP assays were performed as previously reported (Bachovchin, D. A. et al. Superfamily-wide portrait of serine hydrolase inhibition achieved by library-versus-library screening. Proc. Natl. Acad. Sci. U. S. A. 2010, 107, 20941-20946). Cell or tissue proteomes (50 μL, 1 mg/mL) were treated with either FP-Rh (1 μM final concentration) or JJH350 (2 μM final concentration) for 45 min at 37° C. For FP-Rh labeled samples, the reactions were quenched by adding 20 μL of 4× SDS-PAGE loading buffer. The 30 μL of the quenched samples were loaded on gel for analysis. For (S)-1,3-dioxo-7-(4-phenoxybenzoyl)hexahydroimidazo[1,5-a]pyrazin-2(3H)-yl 4-(4-(prop-2-yn-1-yloxy)phenyl)piperazine-1-carboxylate (JJH350)-labeled samples, copper-catalyzed azide-alkyne cycloaddition (CuAAC) was used for visualizing the labeled proteins following the reported protocol. Briefly, rhodamine-PEG3-N3 (1 μL/reaction, 1.25 mM in DMSO), CuSO4 (1 μL/reaction, 50 mM in H2O), TBTA (3 μL/reaction, 1.7 mM in DMSO/t-BuOH [1:4, v/v]) and tris(2-carboxyethyi)phosphine (TCEP) (1 μL/reaction, 50 mM in H2O, freshly prepared) were premixed. 6 μL of this click reagent mixture was immediately added to each JJH350-labeled samples (50 μL, 1 mg/mL) and incubated for 1 h at room temperature. The reactions were quenched by adding 20 μL of 4× SDS-PAGE loading buffer. The 40 μL of the quenched samples were loaded on a gel for analysis.
After separation by SDS-PAGE (10% acrylamide), samples were visualized by in-gel fluorescence scanning using the ChemiDoc MP system (Bio-Rad). Band intensities were quantified using the Image Lab (5.2.1) software (Bio-Rad).

ABHD12 [2] = target: T2, ABHD12 (Homo sapiens, UniProt Q8N2K0); assay: Lyso-PS hydrolysis assay (substrate-based), ABHD12-overexpressing HEK293T membrane lysate; format: biochemical; details: 17:1 lyso-PS substrate; ABHD12-overexpressed HEK lysate; read-out: IC50 (Substrate-based assay_ABHD12-overexpressed HEK lysate)
T2 construct: expressed in transfected cells; host or cells: HEK293T
T2 sequence (Q8N2K0 1-398): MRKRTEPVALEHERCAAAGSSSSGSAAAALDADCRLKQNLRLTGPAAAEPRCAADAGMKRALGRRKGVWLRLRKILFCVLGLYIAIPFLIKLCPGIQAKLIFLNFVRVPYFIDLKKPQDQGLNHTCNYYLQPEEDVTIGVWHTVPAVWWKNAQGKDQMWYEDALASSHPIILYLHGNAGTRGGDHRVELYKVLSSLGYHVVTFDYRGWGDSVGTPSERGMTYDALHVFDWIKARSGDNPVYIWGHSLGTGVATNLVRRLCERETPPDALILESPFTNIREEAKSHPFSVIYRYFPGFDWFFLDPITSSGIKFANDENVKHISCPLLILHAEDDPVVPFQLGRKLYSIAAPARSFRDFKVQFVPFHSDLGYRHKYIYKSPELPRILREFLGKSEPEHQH
Method: Lyso-PS Hydrolysis Assay:
The lyso-PS lipase activity of ABHD12 was determined as previously described (Blankman, J. L., Long, J. Z., Trauger, S. A., Siuzdak, G. & Cravatt, B. F. ABHD12 controls brain lysophosphatidylserine pathways that are deregulated in a murine model of the neurodegenerative disease PHARC. Proc. Natl. Acad. Sci. U. S. A. 110, 1500-1505, doi:10.1073/pnas.1217121110 (2013)) with some minor modifications. The proteome concentrations were adjusted to 0.25 mg/mL (ABHD12-overexpressing HEK293T membrane) or 0.5 mg/mL (mouse brain membrane) in Dulbecco's phosphate-buffered saline (DPBS) (80 μL/reaction). 20 μL of 500 μM 17:1 lyso-PS in DPBS was added to each reaction (100 μM final concentration) and incubated at 37° C. After 30 min, the reaction was quenched with 400 μL of 2:1 CHCl3/MeOH (v/v) with 1 nmol 15:0 FFA as an internal standard. The mixture was vortexed and centrifuged at 1,400× g to separate the aqueous and organic phase. The organic phase was analyzed by LC-MS (1200 LC/MSD, Agilent Technologies). The separation of the analyte was achieved using a 50 mm×4.6 mm 5 μm Gemini C18 column (Phenomenex) coupled to a guard column (Gemini: C18: 4×3 mm). The LC solvents were as follows: buffer A, […] (95:5, v/v) with 0.1% NH4OH (v/v); and buffer B, iPrOH:MeOH:H2O (60:3 5:5, v/v/v) with 0.1% NH4OH (v/v). The LC method consisted of 0.1 mL/min 20% buffer B for 1.0 min, 0.4 ml/min isocratic mode of 100% buffer B over 7 min and equilibration with 0.5 mL/min 100% buffer A for 3 min. The MS analyses were performed using an electrospray ionization source (ESI) in negative ion mode to measure product formation. MS data were acquired in selected ion monitoring mode at m/z 267.20 for 17:1 FFA and m/z 241.20 for 15:0 FFA.

Structure (SMILES)	inhibition at 10 µM (ABHD12 [1])	IC50 (ABHD12 [1])	IC50 (ABHD12 [2])
Fc1ccc(Oc2ccnc(N3CCC(NC(=S)Nc4cccnc4)CC3)c2)cc1 [Example 41, 1-(1-(4-(4-Fluorophenoxy)pyridin-2-yl)piperidin-4-yl)-3-(pyridin-3-yl)thiourea]	≥ 75%	1000 to 25000 nM	1000 to 25000 nM
FC(F)(F)c1ccc(N2CCC(NC(=S)Nc3cccnc3)CC2)nc1 [Example 14, 1-(Pyridin-3-yl)-3-(1-(5-(trifluoromethyl)pyridin-2-yl)piperidin-4-yl)thiourea]	≥ 75%	1000 to 25000 nM	1000 to 25000 nM
S=C(Nc1cccnc1)NC1CCN(c2cc(Oc3ccccc3)ccn2)CC1 [Example 40, 1-(1-(4-Phenoxypyridin-2-yl)piperidin-4-yl)-3-(pyridin-3-yl)thiourea]	≥ 75%	1000 to 25000 nM	1000 to 25000 nM
FC(F)(F)Oc1cccc(Oc2ccnc(N3CCC(NC(=S)Nc4cccnc4)CC3)c2Cl)c1 [Example 66, 1-(1-(3-Chloro-4-(3-(trifluoromethoxy)phenoxy)pyridin-2-yl)piperidin-4-yl)-3-(pyridin-3-yl)thiourea]	–	≤ 100 nM	100 to 1000 nM
FC(F)(F)Oc1ccc(Oc2ccnc(N3CCC(NC(=S)Nc4cccnc4)CC3)c2)cc1 [Example 2, 1-(Pyridin-3-yl)-3-(1-(4-(4-(trifluoromethoxy)phenoxy)pyridin-2-yl)piperidin-4-yl)thiourea]	≥ 75%	100 to 1000 nM	100 to 1000 nM
S=C(Nc1cccnc1)NC1CCN(c2cc(Cl)ccn2)CC1 [Example 28, 1-(1-(4-Chloropyridin-2-yl)piperidin-4-yl)-3-(pyridin-3-yl)thiourea]	≥ 75%	1000 to 25000 nM	1000 to 25000 nM
FC(F)(F)c1cc(Cl)nc(N2CCC(NC(=S)Nc3cccnc3)CC2)c1 [Example 27, 1-(1-(6-Chloro-4-(trifluoromethyl)pyridin-2-yl)piperidin-4-yl)-3-(pyridin-3-yl)thiourea]	≥ 75%	100 to 1000 nM	100 to 1000 nM
FC(F)(F)c1cccc(N2CCC(NC(=S)Nc3cccnc3)CC2)n1 [Example 29, 1-(Pyridin-3-yl)-3-(1-(6-(trifluoromethyl)pyridin-2-yl)piperidin-4-yl)thiourea]	≥ 75%	100 to 1000 nM	100 to 1000 nM
FC(F)(F)c1ccc(Oc2ccnc(N3CCC(NC(=S)Nc4cccnc4)CC3)c2)cc1 [Example 51, 1-(Pyridin-3-yl)-3-(1-(4-(4-(trifluoromethyl)phenoxy)pyridin-2-yl)piperidin-4-yl)thiourea]	≥ 75%	100 to 1000 nM	100 to 1000 nM
N#Cc1c(Oc2ccc(OC(F)(F)F)cc2)ccnc1N1CCC(NC(=S)Nc2cccnc2)CC1 [Example 71, 1-(1-(3-Cyano-4-(4-(trifluoromethoxy)phenoxy)pyridin-2-yl)piperidin-4-yl)-3-(pyridin-3-yl)thiourea]	–	100 to 1000 nM	100 to 1000 nM
FC(F)(F)Oc1ccc(Oc2ccnc(N3CCC(NC(=S)Nc4cccnc4)CC3)c2C(F)(F)F)cc1 [Example 59, 1-(Pyridin-3-yl)-3-(1-(4-(4-(trifluoromethoxy)phenoxy)-3-(trifluoromethyl)pyridin-2-yl)piperidin-4-yl)thiourea]	≥ 75%	1000 to 25000 nM	1000 to 25000 nM
FC(F)(F)Oc1ccc(Oc2ccnc(N3CCC(NC(=S)Nc4cccnc4)CC3)c2Cl)cc1Cl [Example 65, 1-(1-(3-Chloro-4-(3-chloro-4-(trifluoromethoxy)phenoxy)pyridin-2-yl)piperidin-4-yl)-3-(pyridin-3-yl)thiourea]	–	≤ 100 nM	≤ 100 nM
FC(F)(F)c1ccnc(N2CCC(NC(=S)Nc3cccnc3)CC2)c1Cl [Example 26, 1-(1-(3-Chloro-4-(trifluoromethyl)pyridin-2-yl)piperidin-4-yl)-3-(pyridin-3-yl)thiourea]	≥ 75%	100 to 1000 nM	100 to 1000 nM
Cc1c(Oc2ccc(OC(F)(F)F)cc2)ccnc1N1CCC(NC(=S)Nc2cccnc2)CC1 [Example 72, 1-(1-(3-Methyl-4-(4-(trifluoromethoxy)phenoxy)pyridin-2-yl)piperidin-4-yl)-3-(pyridin-3-yl)thiourea]	–	≤ 100 nM	≤ 100 nM
FC(F)(F)c1cccnc1N1CCC(NC(=S)Nc2cccnc2)CC1 [Example 16, 1-(Pyridin-3-yl)-3-(1-(3-(trifluoromethyl)pyridin-2-yl)piperidin-4-yl)thiourea]	25 to 50%	1000 to 25000 nM	1000 to 25000 nM
FC(F)(F)Oc1ccc(Oc2ccnc(N3CCC(NC(=S)Nc4cccnc4)CC3)c2Cl)cc1 [Example 3, 1-(1-(3-chloro-4-(4-(trifluoromethoxy)phenoxy)pyridin-2-yl)piperidin-4-yl)-3-(pyridin-3-yl)thiourea]	≥ 75%	≤ 100 nM	≤ 100 nM
FC(F)(F)Oc1ccc(Oc2ccnc(N3CCC(NC(=S)Nc4cccnc4)CC3)c2Cl)c(Cl)c1 [Example 4, 1-(1-(3-Chloro-4-(2-chloro-4-(trifluoromethoxy)phenoxy)pyridin-2-yl)piperidin-4-yl)-3-(pyridin-3-yl)thiourea]	–	≤ 100 nM	≤ 100 nM
FC(F)(F)c1cc(N2CCC(NC(=S)Nc3cccnc3)CC2)ncc1Cl [Example 25, 1-(1-(5-Chloro-4-(trifluoromethyl)pyridin-2-yl)piperidin-4-yl)-3-(pyridin-3-yl)thiourea]	≥ 75%	1000 to 25000 nM	1000 to 25000 nM
C#Cc1ccc(Oc2ccnc(N3CCC(NC(=S)Nc4cccnc4)CC3)c2Cl)c(Cl)c1 [Example 5, 1-(1-(3-Chloro-4-(2-chloro-4-ethynylphenoxy)pyridin-2-yl)piperidin-4-yl)-3-(pyridin-3-yl)thiourea]	–	–	≤ 100 nM
